Test results taken from patent publication US20030077653A1, “Method for the identification of active site protease inactivators” (The University of Georgia Research Foundation, Inc., priority 2000, published 2003).
Starred links: 1 amine or outer side, 2 acyl side, 3 side chain; linkers in the order of their positions; H or OH if unused. Residues, ends and D or L forms follow the SMILES beside them. *: point of attachment. AFC = O=c1cc(C(F)(F)F)c2ccc(N*)cc2o1; Morpholide = C1CN(*)CCO1; Cbz = O=C(OCc1ccccc1)*; CO = O=C([*:1])[*:2]; CH2F = FC*

Assays:
[1] = biological target: purified Taenia solium cysteine protease; assay: Competitor assay: vehicle inhibition of cleavage of high Vmax AFC substrate cocktails (Step III); assay type: biochemical; conditions: preliminary results, in comparison to the battery of substrates
Protocol: (We employed “Vmax” here although Kcat could also be used). Due to the lower number of substrates, a percentage was not chosen for the “BOTTOM %” substrates. Alternately, all substrates which were not cleaved as determined by a value of 10 μM/hr or less, were chosen to be tested in this step for competitive ability. From this point forth, the term “vehicle” will represent low Vmax substrates that were capable of inhibiting cleavage of the percent cocktails. In this instance, we tested for “vehicles” which inhibited cleavage of the TOP 1.4% cocktail (they were delivered into the active site). Based upon our results from Step II, the top 1.4% cocktail was composed of Z-Phe-Arg-AFC, the highest cleaved substrate.
The experiment began with a competitor test between the noncleaved low Vmax substrates and the highest Vmax substrate, Z-Phe-Arg-AFC. Concentrations were varied between the low Vmax substrate and Z-Phe-Arg-AFC, as described above under “refinement of assay” until a relative inhibition profile was obtained.
The mixture was allowed to equilibrate for a period of 30 minutes. Finally, active purified enzyme was added to the tubes at a concentration which was always 50 times less than the concentration of the high and low Vmax substrates, in order to insure saturation conditions. This concentration varied from purification to purification and the amount added depended upon the yield and specific activity of the purified protease.
Positive controls were set up similarly as described for test controls, except that solvent was added in substitution for the low Vmax substrate (in a volume equal to the low Vmax volume addition). All of the substrates could be dissolved in dimethylsulfoxide (DMSO), and therefore, this was the solvent of choice. Negative controls were set up by adding the low Vmax and the high Vmax substrate in a tube without the protease. All potential non-proteolytic induced liberation of AFC was therefore controlled for in this tube (a feature which also insured stability of the AFC substrates, since these substrates will freely liberate AFC when unstable). A tube set will be established for this negative control.
All controls were set up in triplicate, and experiments repeated a minimum of five times. The assays were incubated at 37° C., for 18 hours overnight.
Percent inhibition was calculated as: [formula]
A 2.9% cocktail of the high Vmax substrates was made. This was composed of Z-FR-AFC and the second most cleaved substrate, Z-FAR-AFC. The vehicles promoted from the initial screenings above were again tested for competitive inhibition ability with the new cocktails. Their concentrations were set identically to those which were “fixed” in the previous protocols. […]

[2] = test system: purified Taenia solium cysteine protease; assay: Protease inactivator inhibition assay (EC100, Ki; Step VII); assay type: biochemical
Description: Once the protease inactivators were synthesized in the organic laboratory, they were to be tested for the lowest efficacious concentrations at which they induced 100% inhibition of the target protease (EC100). The top percent cocktail that was employed in the final vehicle selection step of Step III was employed as the source of competition for the inhibitors. In this case, this was the […] which was comprised of Z-FR-AFC, Z-FAR-AFC, Z-AP-AFC, Z-AAK-AFC, and Z-VLR-AFC. The final result would be a ranking of transition state candidate protease inactivators with a high ranking directly correlating to a low ECIoo value. The following steps describe the assay:
Step A: Initial Screening. To set up the test control, each protease inactivator was first incubated with the 5% cocktail (which provided the final differentiation of vehicles in Step III). To begin with, the protease inactivator was incubated at a concentration of 3×10^−9M in 500 μl of assay buffer (0.2 M Citrate, pH 4.9 supplemented with 10mM L-cysteine). This concentration was determined, after a series of inhibitor dilutions identified, to be the best inhibitor concentration at which a differentiation in inhibitor potential could be noted. Next, a concentration equal to 4×10^−5M for each of the individual cocktail components, was added to the mix. The components were allowed to equilibrate for a period of 30 minutes. […]
Percent inhibition was calculated as: [formula] […]
Step C: Determination ofInhibitor Ki and mode of inhibition, and re-ranking of EC100 list with inhibitor Ki. Ki of each of the top ranked protease inactivators, based upon low EC100 values, was assessed next for the top 5 EC100 inhibitors.
In order to determine Ki, all of the high Vmax cocktail substrates were employed for Ki determination (since Ki of the inhibitor for the enzyme is the same regardless of the substrate). To insure the highest accuracy, Ki was to be determined upon a minimum of at least three of the high Kcat substrates. […]

| Structure (SMILES) | Ki of vehicles (ranking; values not reported) [1] | ranking of protease inactivators by inhibition / EC100 [2] |
| --- | --- | --- |
| CC(C)C[C@H](NC(=O)N1CCOCC1)C(=O)N[C@@H](Cc1ccc(O)cc1)C(=O)Nc1ccc2c(C(F)(F)F)cc(=O)oc2c1 [Mu-LY-AFC, Mu-Leu-Tyr-AFC] ({Morpholide-CO}-Leu-Tyr-{AFC}) | lowest Ki values | – |
| CC(C)C[C@H](NC(=O)[C@H](CC(C)C)NC(=O)[C@H](CC(C)C)NC(=O)OCc1ccccc1)C(=O)CF [Z-LLL-FMK, Z-Leu-Leu-Leu-fluoromethylketone] (Cbz-Leu-Leu-Leu-CH2F) | – | top inhibitors |
| CC(C)C[C@H](NC(=O)OCc1ccccc1)C(=O)N[C@@H](CC(C)C)C(=O)N[C@@H](Cc1ccc(O)cc1)C(=O)CF [Z-LLY-FMK, Z-Leu-Leu-Tyr-FMK] (Cbz-Leu-Leu-Tyr-CH2F) | – | top inhibitors |
